Laboratory results reported in patent US6545002B1 (University of Virginia Patent Foundation, priority 1999, dated 2003).
Where two headings read alike, the source gives them in different places.

Key:
[1] = target: T1, rat A2A receptors (rA2A) (Rattus norvegicus, UniProt P30543); assay: Displacement of [3H]CGS 21680 binding in rat striatal membranes
T1 construct: to A2A receptors from rat striatal membranes was performed as described; from tissue; host or cells: rat striatal membranes
Procedure: (§1) Bruns, R. F. et al., Naunyn-Schmiedeberg's Arch. […] Binding of [^3H]R-N^6-phenylisopropyladenosine. Schwabe, U. et al., Naunyn-Schmiedeberg's Arch. […] (Dupont NEN, Boston, Mass.) to A2A receptors from rat striatal membranes was performed as described. […] All non-radioactive compounds were initially dissolved in DMSO, and diluted with buffer to the final concentration, where the amount of DMSO never exceeded 2%. Incubations were terminated by rapid filtration over Whatman GF/B filters, using a Brandell cell harvester (Brandell, Gaithersburg, Md.). The tubes were rinsed three times with 3 mL buffer each.
(§2) At least six different concentrations of competitor, spanning 3 orders of magnitude adjusted appropriately for the IC50 of each compound, were used. IC50 values, calculated with the nonlinear regression method implemented in (Graph-Pad Prism, San Diego, Calif.), were converted to apparent Ki values as described. Linden, J., J. Cycl. Nucl.

[2] = target: T2, human A3 receptors (hA3) (Homo sapiens, UniProt P0DMS8); assay: Displacement of [125I]AB-MECA binding at human A3 receptors expressed in HEK-293 cells (Table 4)
T2 construct: expressed in transfected cells; host or cells: HEK-293
T2 sequence (P0DMS8 1-318): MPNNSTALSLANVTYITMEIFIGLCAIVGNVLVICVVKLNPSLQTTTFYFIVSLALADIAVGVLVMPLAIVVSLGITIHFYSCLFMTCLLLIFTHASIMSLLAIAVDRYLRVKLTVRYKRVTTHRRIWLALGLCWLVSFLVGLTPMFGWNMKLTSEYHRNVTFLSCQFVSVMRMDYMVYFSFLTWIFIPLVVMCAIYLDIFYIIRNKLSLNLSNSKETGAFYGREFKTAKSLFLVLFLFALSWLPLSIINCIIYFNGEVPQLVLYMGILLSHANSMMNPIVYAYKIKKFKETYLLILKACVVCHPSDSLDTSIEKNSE

[3] = target: T3, rat A1 receptors (rA1) (Rattus norvegicus, UniProt P25099); assay: Displacement of [3H]R-PIA binding in rat brain (cerebral cortical) membranes
T3 construct: to A1 receptors from rat cerebral cortical membranes; from tissue; host or cells: rat cerebral cortical (brain) membranes
T3 sequence (P25099 1-326): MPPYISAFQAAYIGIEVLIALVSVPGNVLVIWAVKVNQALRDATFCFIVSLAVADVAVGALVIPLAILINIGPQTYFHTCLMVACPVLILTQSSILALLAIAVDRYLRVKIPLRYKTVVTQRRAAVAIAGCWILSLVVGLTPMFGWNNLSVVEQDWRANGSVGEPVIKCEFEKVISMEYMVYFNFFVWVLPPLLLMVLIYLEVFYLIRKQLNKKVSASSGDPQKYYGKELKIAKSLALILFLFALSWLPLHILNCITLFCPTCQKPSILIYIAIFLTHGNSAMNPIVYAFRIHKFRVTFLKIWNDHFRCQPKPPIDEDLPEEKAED
Procedure: as §1, §2

[4] = target: T2, human A3 receptors (hA3); assay: Displacement of [125I]ABA binding at human A3 receptors expressed in HEK-293 cells
[5] = target: recombinant human A2A receptors (hA2A) (Homo sapiens, UniProt P29274); assay: Radioligand binding (125I-ZM241385) at recombinant human A2A receptors in HEK-293 cells
[6] = target: T4, recombinant human A1 receptors (hA1) (Homo sapiens, UniProt P30542); assay: Radioligand binding ([3H]CPX) at recombinant human A1 receptors in HEK-293 cells
T4 sequence (P30542 1-326): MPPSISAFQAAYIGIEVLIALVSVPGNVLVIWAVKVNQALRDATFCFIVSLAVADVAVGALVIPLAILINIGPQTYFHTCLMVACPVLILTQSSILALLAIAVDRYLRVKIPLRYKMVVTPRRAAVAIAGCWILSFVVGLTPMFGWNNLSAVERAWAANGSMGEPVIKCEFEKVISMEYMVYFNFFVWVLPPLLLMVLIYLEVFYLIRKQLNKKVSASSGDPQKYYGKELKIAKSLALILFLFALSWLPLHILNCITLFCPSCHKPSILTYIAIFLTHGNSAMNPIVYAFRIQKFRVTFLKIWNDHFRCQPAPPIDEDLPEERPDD
Procedure: The potency of the xanthine derivatives at human A2B receptors was evaluated using two binding assays. […] In order to determine selectivity, the xanthines were evaluated using standard binding assays at A1, A2A, and A3 receptors.

[7] = target: T5, human A2B receptors (hA2B) (Homo sapiens, UniProt P29275); assay: Radioligand binding ([125I]ABOPX / [3H]ZM241385) at human A2B receptors expressed in HEK-293 cells
T5 construct: expressed in transfected cells; host or cells: HEK-293 (HEK-A2B, G418-selected)
T5 sequence (P29275 1-332): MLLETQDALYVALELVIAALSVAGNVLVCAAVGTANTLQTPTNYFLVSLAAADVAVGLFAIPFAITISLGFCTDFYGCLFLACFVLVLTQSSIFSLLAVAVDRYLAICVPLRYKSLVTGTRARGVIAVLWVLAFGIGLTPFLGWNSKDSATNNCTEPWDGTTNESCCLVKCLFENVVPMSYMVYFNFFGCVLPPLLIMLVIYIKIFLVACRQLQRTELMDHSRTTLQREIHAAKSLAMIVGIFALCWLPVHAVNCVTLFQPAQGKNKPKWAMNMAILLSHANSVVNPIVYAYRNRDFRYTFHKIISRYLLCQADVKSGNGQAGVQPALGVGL

[8] = Table 2, read-out: rA2A Ki or IC50
[9] = Table 2, read-out: hA3 Ki or IC50
[10] = read-out: hA2A Ki or IC50, Table 2
[11] = read-out: hA1 Ki or IC50, Table 2
[12] = Table 2, read-out: rA1 Ki or IC50
[13] = Table 2, read-out: hA2B Ki or IC50
[14] = read-out: Ki value at human A2B receptors
[15] = Table 4, unmarked value, first of two binding assays, read-out: hA2B Ki

T1 sequence (P30543 whole entry): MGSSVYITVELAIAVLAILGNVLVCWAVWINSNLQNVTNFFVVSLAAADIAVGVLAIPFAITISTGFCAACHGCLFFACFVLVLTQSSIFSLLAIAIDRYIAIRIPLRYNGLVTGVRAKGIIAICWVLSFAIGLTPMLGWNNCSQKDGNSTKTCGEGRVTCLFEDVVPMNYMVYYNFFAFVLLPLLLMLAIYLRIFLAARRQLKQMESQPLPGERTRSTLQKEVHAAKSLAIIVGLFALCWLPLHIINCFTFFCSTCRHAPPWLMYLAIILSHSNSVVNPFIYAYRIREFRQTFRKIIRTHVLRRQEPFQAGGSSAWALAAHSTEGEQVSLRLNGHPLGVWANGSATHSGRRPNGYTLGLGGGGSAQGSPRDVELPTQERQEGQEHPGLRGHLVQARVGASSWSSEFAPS
recombinant human A2A receptors (hA2A), sequence (P29274 whole entry): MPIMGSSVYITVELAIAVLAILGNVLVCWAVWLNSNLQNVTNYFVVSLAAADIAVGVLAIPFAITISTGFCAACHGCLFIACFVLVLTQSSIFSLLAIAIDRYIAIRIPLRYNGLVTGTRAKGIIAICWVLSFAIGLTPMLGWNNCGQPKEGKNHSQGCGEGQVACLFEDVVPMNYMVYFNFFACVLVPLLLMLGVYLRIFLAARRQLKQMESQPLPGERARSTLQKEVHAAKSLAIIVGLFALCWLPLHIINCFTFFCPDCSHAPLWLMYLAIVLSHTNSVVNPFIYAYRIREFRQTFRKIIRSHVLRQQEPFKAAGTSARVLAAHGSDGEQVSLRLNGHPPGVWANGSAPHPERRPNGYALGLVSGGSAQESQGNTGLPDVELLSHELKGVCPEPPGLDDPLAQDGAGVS

Ki ([1]; Table 4, read-out: rA2A Ki) [nM] | Ki [2] [nM] | Ki ([3]; Table 4, read-out: rA1 Ki) [nM] | melting point [°C] | rA1/hA2B ([7]; Table 4, Ki ratio) | Ki [7, 15] [nM] | Structure (SMILES) | further results
 |  |  | 309 |  |  | CCCn1c(=O)c2[nH]c(-c3ccc(OCC(=O)Nc4ccc(Cl)cc4)cc3)nc2n(CCC)c1=O [Compound 31, 8-[4-[((4-Chloro)phenylcarbamoylmethyl)oxy]phenyl]-1,3-di-(n-propyl)xanthine] | Ki [1, 8]: 995 ± 550 nM; Ki [4, 9]: 1870 nM; Ki [5, 10]: 187 ± 38 nM; Ki [6, 11]: 49.7 ± 14.2 nM; Ki [3, 12]: 6.35 ± 1.47 nM; Ki [7, 13]: 2.47 ± 0.71 nM
 |  |  | > 310 |  |  | CCCn1c(=O)c2[nH]c(-c3ccc(OCC(=O)Nc4ccc(Br)cc4)cc3)nc2n(CCC)c1=O [Compound 32, 8-[4-[((4-Bromo)phenylcarbamoylmethyl)oxy]phenyl]-1,3-di-(n-propyl)xanthine] | Ki [1, 8]: 221 ± 36 nM; Ki [4, 9]: 2300 nM; Ki [5, 10]: 1640 nM; Ki [6, 11]: 73.5 ± 23.3 nM; Ki [3, 12]: 7.46 ± 2.66 nM; Ki [7, 13]: 2.35 ± 0.01 nM
 |  |  | 302 to 303 |  |  | CCCn1c(=O)c2[nH]c(-c3ccc(/C=C/C(=O)NN4C(=O)C(C)=C(C)C4=O)cc3)nc2n(CCC)c1=O [Compound 34, 8-(4-(2-Carboxy-trans-vinyl)phenyl)-1,3-di-(n-propyl)xanthine N′,N′-[(1,2-Dimethyl)maleyl]hydrizide] | Ki ([1]; Table 3, read-out: rA2A Ki or IC50): 406 ± 105 nM; Ki ([4]; Table 3, read-out: hA3 Ki or IC50): 31 ± 3.1 nM; Ki ([5]; read-out: hA2A Ki, values marked (h), Table 3): 223 ± 55 nM; Ki ([6]; read-out: hA1 Ki, values marked (h), Table 3): 105 ± 5 nM; Ki ([3]; Table 3, read-out: rA1 Ki or IC50): 3.94 ± 1.2 nM; Ki ([7]; Table 3, read-out: hA2B Ki or IC50): 16.7 ± 3 nM
139 ± 32 | 1560 | 74.3 ± 6.6 |  | 2.5 | 30.2 ± 0.5 | CCCn1c(=O)c2[nH]c(-c3ccc(OCC(=O)NN4C(=O)C[C@H](NC(=O)C(F)(F)F)C4=O)cc3)nc2n(CCC)c1=O [Compound 44, 8-[4-[(Carboxymethyl)oxy]phenyl]-1,3-di-(n-propyl)xanthine N,N-[((2S)-Trifluoroacetamido)succinyl]hydrazide] | 
21.4 ± 6.1 | 151 ± 99 | 3.87 ± 1.2 |  | 1.0 | 3.86 ± 0.7 | CCCn1c(=O)c2[nH]c(-c3ccc(OCC(=O)NN4C(=O)CCC(c5ccccc5)C4=O)cc3)nc2n(CCC)c1=O (centres unmarked) [Compound 45, 8-[4-[(Carboxymethyl)oxy]phenyl]-1,3-di-(n-propyl)xanthine N,N-[(2-Phenyl)glutaryl]hydrazide] | 
1230 ± 270 | 551 ± 106 | 203 ± 41 |  | 1.4 | 144 ± 11 | CCCn1c(=O)c2[nH]c(-c3ccc(OCC(=O)NN4C(=O)C=C(C)C4=O)cc3)nc2n(CCC)c1=O [Compound 46, 8-[4-[(Carboxymethyl)oxy]phenyl]-1,3-di-(n-propyl)xanthine N,N-Citraconylhydrazide] | 
126 ± 41 |  | 11.1 ± 2.4 | > 310 | 0.57 | 19.4 ± 6.2 | CCCn1c(=O)c2[nH]c(-c3ccc(OCC(=O)NN4C(=O)C(C)=C(C)C4=O)cc3)nc2n(CCC)c1=O [Compound 47, 8-[4-[(Carboxymethyl)oxy]phenyl]-1,3-di-(n-propyl)xanthine N,N-[(1,2-Dimethyl)maleyl]hydrazide] | Ki ([4]; Table 4, footnote a: [125I]ABA, read-out: hA3 Ki (value marked ^a)): 670 ± 154 nM; Ki ([5]; read-out: hA2A Ki, values marked (h), Table 1, recombinant human A2A, HEK 293): 1970 nM; Ki ([6]; read-out: hA1 Ki, values marked (h)^a, Table 4, vs [3H]CPX, HEK-293): 3030 nM; selectivity for human A2B versus human A1 receptors [7]: 160 fold; selectivity for human A2B versus human A2A receptors [7]: 100 fold; selectivity for human A2B versus human A3 receptors [7]: 35 fold; hA1/hA2B ([7]; Table 1, Ki ratio): 110; hA2A/hA2B ([7]; Table 1, Ki ratio): 74; hA3/hA2B ([7]; Table 1, Ki ratio): 25; Ki ([7]; Table 1, [125I]ABOPX, HEK-293, read-out: hA2B Ki or IC50): 26.6 ± 4 nM; Ki ([7]; Table 4, footnote a: [125I]-ABOPX, read-out: hA2B Ki (value marked ^a) (converted)): 33.8 nM; Ki [7, 14]: 19 nM
1540 ± 280 | 748 ± 234 | 225 ± 76 |  | 3.4 | 66.7 ± 37 | CCCn1c(=O)c2[nH]c(-c3ccc(OCC(=O)NN4C(=O)C=C(c5ccccc5)C4=O)cc3)nc2n(CCC)c1=O [Compound 49, 8-[4-[(Carboxymethyl)oxy]phenyl]-1,3-di-(n-propyl)xanthine N,N-[(2-Phenyl)maleyl]hydrazide] | 
2100 ± 630 | 3450 ± 1470 | 95.8 ± 25.1 |  | 3.4 | 27.9 ± 8.5 | CCCn1c(=O)c2[nH]c(-c3ccc(OCC(=O)NN4C(=O)C(c5ccccc5)=C(c5ccccc5)C4=O)cc3)nc2n(CCC)c1=O [Compound 50, 8-[4-[(Carboxymethyl)oxy]phenyl]-1,3-di-(n-propyl)xanthine N,N-[(1,2-Diphenyl)maleyl]hydrazide] | 
813 ± 299 | 1060 ± 150 | 134 ± 19 |  | 2.6 | 51 ± 7 | CCCn1c(=O)c2[nH]c(-c3ccc(OCC(=O)NNC(=O)C4CC=CCC4C(=O)O)cc3)nc2n(CCC)c1=O (stereo not drawn) [Compound 51, 8-[4-[(Carboxymethyl)oxy]phenyl]-1,3-di-(n-propyl)xanthine N-[2-((1-Carboxy)-cis-4-cyclohexene)-carbonyl]hydrazide] | 
708 ± 169 | 1180 ± 700 | 81.7 ± 31.2 |  | 1.0 | 78.5 ± 20.5 | CCCn1c(=O)c2[nH]c(-c3ccc(OCC(=O)NNC(=O)C4=C(C(=O)O)CCC4)cc3)nc2n(CCC)c1=O [Compound 53, 8-[4-[(Carboxymethyl)oxy]phenyl]-1,3-di-(n-propyl)xanthine N-[2-((1-Carboxy)-1-cyclopentene)-carbonyl]hydrazide] | 

Structure (SMILES) | Ki ([1]; Table 4, read-out: rA2A Ki) [nM] | Ki [2] [nM] | Ki ([3]; Table 4, read-out: rA1 Ki) [nM] | melting point [°C] | rA1/hA2B ([7]; Table 4, Ki ratio) | Ki [7, 15] [nM] | further results
CCCn1c(=O)c2[nH]c(-c3ccc(OCC(=O)NN)cc3)nc2n(CCC)c1=O [Compound 4f] | 63.8 ± 21.3 | 498 ± 139 | 16 ± 0.5 |  |  |  | 
CCCn1c(=O)c2[nH]c(-c3ccc(OCC(=O)Nc4ccc(I)cc4)cc3)nc2n(CCC)c1=O [Compound 33, 8-[4-[((4-Iodo)phenylcarbamoylmethyl)oxy]phenyl]-1,3-di-(n-propyl)xanthine] |  |  |  | > 310 |  |  | Ki [1, 8]: 152 ± 47 nM; Ki [4, 9]: 1270 nM; Ki [5, 10]: 5140 nM; Ki [6, 11]: 293 ± 67 nM; Ki [3, 12]: 15.7 ± 4.2 nM; selectivity for human A2B versus human A1 receptors [7]: 140 fold; selectivity for human A2B versus human A2A receptors [7]: 2400 fold; selectivity for human A2B versus human A3 receptors [7]: 600 fold; Ki [7, 14]: 2.13 nM
